Test results published in patent publication US20170239173A1, “TRANSDERMAL ABSORPTION ENHANCER AND TRANSDERMAL ABSORPTION ENHANCEMENT AID” (ASAHI KASEI KABUSHIKI KAISHA, priority 2014, published 2017).
Where two headings read alike, the source gives them in different places. Blank lines part the entries; values can stand above or below the molecule they belong to.

Columns and labels:
[1] = Solubility / state of the active ingredient in the preparation (equimolar salt or enhancer); assay type: physicochemical; settings: solubility of MZR in the equimolar salt of the basic compound a) with isostearic acid or linoleic acid
[2] = Franz cell test of MZR preparations, artificial skin; settings: equimolar salt of choline with the acidic compound b) as enhancer
[3] = test system: Yucatan Micropig Skin; settings: Non Patent Literature 1, at maximum; cited from earlier work
[4] = test system: hairless mouse skin (Laboskin)
[5] = cited from earlier work
[6] = cited from earlier work; remark: listed apart in the source
[7] = subcutaneous administration to rats; cited from earlier work
[8] = partition coefficient between water and 1-octanol; cited from earlier work

MZR dissolution [1]: Insoluble
Compound: CCn1cc[n+](C)c1.O=S(=O)([O-])C(F)(F)F

Compound: COP(=O)([O-])OC.Cn1cc[n+](C)c1
MZR dissolution [1]: Insoluble

Transdermal penetrability of MZR (artificial skin) [2]: Penetrated
Compound: CC(O)C(=O)O (racemic) [DL-lactic acid]

Compound: Nc1nc2c(ncn2COCCO)c(=O)[nH]1 [ACV, acyclovir]
transdermal penetration amount of ACV for 24 hours [3]: ≤ 0.5 μg/cm^2

Transdermal penetrability of MZR (hairless mouse) [4]: Not penetrated
Compound: CC(=O)O [Acetic acid]

MZR dissolution [1]: Insoluble
Compound: Nc1ncnc2[nH]cnc12 [Adenine]

Compound: O=C(O)c1ccccc1 [Benzoic acid]
Transdermal penetrability of MZR (artificial skin) [2]: Penetrated

Compound: CC(O)CNCC(C)O (stereo not shown) [DIPA]
MZR dissolution [1]: Insoluble
Transdermal penetrability of MZR [4]: Not penetrated

Transdermal penetrability of MZR (hairless mouse) [4]: Penetrated
Compound: CCCCCCCCCCCC(=O)O [Dodecanoic acid]
pKa [5]: 5.30
Water solubility ([6]; 20° C.): 5.5 mg/100 g (20° C.)

Compound: O=C(O)/C=C/C(=O)O [Fumaric acid]
Water solubility ([6]; 25° C.): 0.63 g/100 mL-water

Compound: O=C(O)CCCC(=O)O [Glutaric acid]
Transdermal penetrability of MZR (artificial skin) [2]: Penetrated
pKa [5]: 4.34
pKa ([5]; second value): 5.42
Water solubility ([6]; 20° C.): 430 g/L (20° C.)

Transdermal penetrability of MZR (artificial skin) [2]: Penetrated
Compound: O=C(O)CO [Glycolic acid]

MZR dissolution [1]: Dissolved
Transdermal penetrability of MZR [4]: Penetrated
Compound: N=C(N)N [Guanidine]

MZR dissolution [1]: Dissolved
Transdermal penetrability of MZR [4]: Penetrated
Compound: NCCc1c[nH]cn1 [Histamine]

Compound: CC(C)CCCCCCCCCCCCCCC(=O)O [Isostearic acid]
pKa [5]: 4.90

Transdermal penetrability of MZR (hairless mouse) [4]: Penetrated
Compound: CCCCC/C=C\C/C=C\CCCCCCCC(=O)O [Linoleic acid]

Compound: NC(=O)c1ncn([C@@H]2O[C@H](CO)[C@@H](O)[C@H]2O)c1O [MZR, mizoribine]
no-observed-adverse-effect level (NOAEL) [7]: 5 mg/kg
Log P [8]: −1.9
rate of penetration ([4]; hairless, mouse): approximately 30%

Compound: O=C(O)/C=C\C(=O)O [Maleic acid]
Water solubility ([6]; 25° C.): 78 g/100 mL (25° C.)

Transdermal penetrability of MZR (hairless mouse) [4]: Penetrated
Compound: CCCCCCCCCCCCCC(=O)O [Myristic acid]
pKa [5]: 4.90
Water solubility ([6]; at 18° C.): <0.1 g/100 mL at

Transdermal penetrability of MZR (hairless mouse) [4]: Penetrated
Compound: CCCCCCCC/C=C\CCCCCCCC(=O)O [Oleic acid]
Water solubility ([6]; in words): negligible

Compound: CCCCCCCCCCCCCCCC(=O)O [Palmitic acid]
pKa [5]: 4.75

Compound: CCCCCCCCCCCCCCCCCC(=O)O [Stearic acid]
pKa [5]: 4.75

Transdermal penetrability of MZR (hairless mouse) [4]: Not penetrated
Compound: O=C(O)CCC(=O)O [Succinic acid]
Log P [8]: (LogP = −0.6)

Compound: CC(O)CN(CC(C)O)CC(C)O (stereo not shown) [TIPA]
MZR dissolution [1]: Insoluble

Transdermal penetrability of MZR (hairless mouse) [4]: Not penetrated
Compound: COc1cc(C(O)C(=O)O)ccc1O (stereo not shown) [Vanillylmandelic acid]
pKa [5]: 3.11
Water solubility ([6]; H2O): H2O: ~50 mg/mL

Transdermal penetrability of MZR [4]: Penetrated
Compound: C[N+](C)(C)CCO [choline]
Log P [8]: (LogP = −0.4

Compound: NCCS(=O)(O)=S [thiotaurine]
Log P [8]: −0.1

Compound: c1ccc(CC2=NCCN2)cc1 [tolazoline]
Log P [8]: 2.6

Compound: Cc1cccc(Nc2ccncc2S(=O)(=O)NC(=O)NC(C)C)c1 [torasemide]
Log P [8]: 2.7

Compound: CCOC(=O)[C@H](CCc1ccccc1)N[C@@H](C)C(=O)N1[C@H](C(=O)O)C[C@H]2CCCC[C@@H]21 [trandolapril]
Log P [8]: 2

Compound: NC[C@H]1CC[C@H](C(=O)O)CC1 [tranexamic acid]
Log P [8]: −2

Compound: Nc1nc(N)c2nc(-c3ccccc3)c(N)nc2n1 [triamterene]
Log P [8]: 1

Compound: NS(=O)(=O)c1cc2c(cc1Cl)NC(C(Cl)Cl)NS2(=O)=O (stereo not shown) [trichlormethiazide]
Log P [8]: 0.6

Compound: N[C@@H](Cc1c[nH]c2ccccc12)C(=O)O [tryptophan]
Log P [8]: −1.1

Compound: COc1ccccc1N1CCN(CCCNc2cc(=O)n(C)c(=O)n2C)CC1 [urapidil]
Log P [8]: 1.5

Compound: COc1ccc(C(=O)N2CCN(c3ccc4c(c3)CCC(=O)N4)CC2)cc1OC [vesnarinone]
Log P [8]: 2.1

Compound: C[N+](C)(C)CCOP(=O)([O-])OC[C@H](O)CO [αGPC]
MZR dissolution [1]: Insoluble
Transdermal penetrability of MZR [4]: Not penetrated
